Drawing on US5081284A, “Proteinase inhibitor” (Suntory Limited, priority 1989, dated 1992), this text covers IC50 for 6 compounds.

Read-outs that look alike come from different tables or passages of the source.

One assay deals with T1, calpain I (Homo sapiens, UniProt P07384).
T1 sequence (P07384 1-714): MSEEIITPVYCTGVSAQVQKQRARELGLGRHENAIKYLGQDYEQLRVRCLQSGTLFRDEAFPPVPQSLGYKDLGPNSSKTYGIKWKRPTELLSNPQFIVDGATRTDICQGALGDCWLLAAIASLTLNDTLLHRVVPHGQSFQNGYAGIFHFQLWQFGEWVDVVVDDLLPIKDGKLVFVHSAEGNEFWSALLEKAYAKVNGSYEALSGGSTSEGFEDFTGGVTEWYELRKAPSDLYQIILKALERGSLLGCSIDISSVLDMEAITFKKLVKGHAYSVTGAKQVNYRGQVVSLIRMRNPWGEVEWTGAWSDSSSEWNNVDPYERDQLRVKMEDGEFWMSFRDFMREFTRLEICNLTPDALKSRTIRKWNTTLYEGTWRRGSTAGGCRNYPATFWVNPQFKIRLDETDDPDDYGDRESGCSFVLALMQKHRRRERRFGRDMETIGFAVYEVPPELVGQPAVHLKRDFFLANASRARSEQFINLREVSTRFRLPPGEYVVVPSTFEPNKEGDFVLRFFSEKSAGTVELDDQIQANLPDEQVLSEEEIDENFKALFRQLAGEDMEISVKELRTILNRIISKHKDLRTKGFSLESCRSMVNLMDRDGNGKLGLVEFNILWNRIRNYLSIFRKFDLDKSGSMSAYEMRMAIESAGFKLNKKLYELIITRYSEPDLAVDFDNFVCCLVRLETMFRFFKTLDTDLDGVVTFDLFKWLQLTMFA
T1 sequence (P04632 1-268 partner): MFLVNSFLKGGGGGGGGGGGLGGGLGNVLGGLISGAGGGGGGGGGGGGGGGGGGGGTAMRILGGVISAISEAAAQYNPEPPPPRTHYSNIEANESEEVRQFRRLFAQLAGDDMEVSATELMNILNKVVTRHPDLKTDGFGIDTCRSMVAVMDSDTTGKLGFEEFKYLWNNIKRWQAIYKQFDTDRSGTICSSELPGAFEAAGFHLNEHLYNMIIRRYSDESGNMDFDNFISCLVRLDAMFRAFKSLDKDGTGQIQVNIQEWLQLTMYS
The assay can be described thus: Anti-calpain activity, calpain I (casein hydrolysis, Ross-Schatz method). The format is biochemical.

A further assay deals with T2, calpain II (Homo sapiens, UniProt P17655).
T2 sequence (P17655 1-700): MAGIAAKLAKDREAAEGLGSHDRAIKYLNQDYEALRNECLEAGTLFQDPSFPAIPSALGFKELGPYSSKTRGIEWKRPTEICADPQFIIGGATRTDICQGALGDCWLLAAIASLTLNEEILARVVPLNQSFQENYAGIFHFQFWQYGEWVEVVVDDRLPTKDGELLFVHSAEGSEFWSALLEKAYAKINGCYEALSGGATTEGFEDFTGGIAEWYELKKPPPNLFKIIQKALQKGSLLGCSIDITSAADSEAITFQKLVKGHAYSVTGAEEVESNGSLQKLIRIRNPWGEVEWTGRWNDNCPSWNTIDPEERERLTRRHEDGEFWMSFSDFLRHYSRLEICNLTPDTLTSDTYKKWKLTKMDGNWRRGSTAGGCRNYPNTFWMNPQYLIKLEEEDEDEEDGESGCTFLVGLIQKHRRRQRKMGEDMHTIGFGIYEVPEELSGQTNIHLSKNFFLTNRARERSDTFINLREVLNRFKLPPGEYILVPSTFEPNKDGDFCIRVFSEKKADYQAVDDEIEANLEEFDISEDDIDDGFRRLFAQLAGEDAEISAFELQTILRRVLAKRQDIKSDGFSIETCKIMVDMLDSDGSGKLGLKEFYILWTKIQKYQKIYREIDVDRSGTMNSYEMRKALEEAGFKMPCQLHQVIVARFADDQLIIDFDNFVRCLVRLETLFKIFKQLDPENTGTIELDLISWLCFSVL
T2 sequence (P04632 1-268 partner): T1 sequence (P04632 1-268 partner)
The assay can be described thus: Anti-calpain activity, calpain II (casein hydrolysis, Ross-Schatz method). The format is biochemical.

The next assay deals with T3, papain (Carica papaya, UniProt P00784).
T3 sequence (P00784 134-345): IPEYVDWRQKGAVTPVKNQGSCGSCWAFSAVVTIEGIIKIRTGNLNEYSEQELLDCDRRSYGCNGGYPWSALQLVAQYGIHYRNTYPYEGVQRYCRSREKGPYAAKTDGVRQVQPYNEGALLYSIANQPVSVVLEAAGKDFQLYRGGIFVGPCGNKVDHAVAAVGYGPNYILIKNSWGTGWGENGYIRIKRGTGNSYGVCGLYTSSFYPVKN
Briefly: Anti-papain activity (casein hydrolysis, Lowry-Folin method). The format is biochemical. The procedure:
(§1) A mixture of a test compound of the present invention, papain (0.015 units) and a citrate buffer solution (20 mM, pH=6.2,1 ml) containing EDTA (0.88 mg) was preincubated at 30° C. for 5 minutes and a substrate solution (1 ml) was added to start the reaction. The substrate was a 1% solution of casein in the citrate buffer. The reaction was performed at 30° C. for 20 minutes. The reaction was quenched by adding 6.5% trichloroacetic acid (3 ml) to the reaction solution. The amount of casein that had been hydrolyzed enzymatically in the trichloroacetic acid soluble fraction was measured by the Lowry-Folin method and the inhibitory activity of the test compound was determined by comparison with the control solution.
as §1, with “pH=6.2, 1” for “pH=6.2,1”

The target of the next assay is cathepsin B (Bos taurus, UniProt P07688). Briefly: Anti-cathepsin activity (cathepsin B, benzyloxycarbonyl-L-lysine-p-nitrophenyl ester substrate). The format is biochemical, bovine. The method, then:
A mixture of a test compound of the present invention and an acetate buffer solution (25 mM, pH=5.1, with 1 mM EDTA, 3.15 ml) containing a substrate (benzyloxycarbonyl-L-lysine-p-nitrophenyl ester, 0.114 mg) was preincubated at 30° C. for 1 minute. To the mixture, a solution (0.05 ml) of cathepsin B (derived from bovine spleen; product of Sigma; 0.05 units) in the acetate buffer was added to start the reaction. Immediately after the start of reaction, the change in absorbance at 326 nm was measured and the inhibitory activity of the test compound was determined by comparison with the control solution.

Setting [1] is: Table 6 (Example 29), pH 7.5, 30° C., 30 minutes, casein, read-out: Inhibitory activity toward calpain I, IC50.
[2] abbreviates: Table 7 (Example 29), pH 7.5, 30° C., 30 minutes, casein, read-out: Inhibitory activity toward calpain II, IC50.
The mark [3] stands for this setting: Table 5 (Example 29), pH 6.2, 30° C., 20 minutes, casein, read-out: Inhibitory activity toward papain, IC50.
The mark [4] stands for this setting: Table 8 (Example 29), pH 5.1, 30° C., from bovine spleen, read-out: Inhibitory activity toward cathepsin B, IC50.

For the compound `CCCC[C@@H](C=O)NC(=O)[C@H](CC(C)C)NP(=S)(c1ccccc1)c1ccccc1` [Example 14, N-diphenylphosphonothioyl-L-leucyl-L-norleucinal], the IC50 (as a rule, the concentration at which inhibition is half-maximal) was 90 nM against calpain I, 120 nM against calpain II, 170 nM against papain and 79 nM at cathepsin B.
In the case of `CCCC[C@@H](C=O)NC(=O)[C@H](CC(C)C)NC(=O)OCc1ccccc1Cl` [Example 9, N-(o-chlorobenzyloxycarbonyl)-L-leucyl-L-norleucinal], the half-maximal inhibitory concentration (IC50) on calpain I (setting [1]) was determined as 110 nM; at calpain II (setting [2]), 130 nM; at papain (setting [3]), 160 nM; on cathepsin B (setting [4]), 140 nM.
In the case of `CCCC[C@@H](C=O)NC(=O)[C@H](CC(C)C)NC(=O)OCc1ccc(Cl)cc1` [Example 6, N-(p-chlorobenzyloxycarbonyl)-L-leucyl-L-norleucinal], the IC50 is 87 nM at calpain I (setting [1]), 130 nM at calpain II (setting [2]), 58 nM at papain (setting [3]) and 70 nM at cathepsin B (setting [4]).
Regarding `CCCC[C@@H](C=O)NC(=O)[C@H](CC(C)C)NC(=O)OCc1ccc(OC)cc1` [Example 7, N-(p-methoxybenzyloxycarbonyl)-L-leucyl-L-norleucinal], the IC50 at calpain I (setting [1]) is 100 nM; at calpain II (setting [2]) it was 130 nM; on papain (setting [3]), 250 nM; on cathepsin B (setting [4]), 150 nM.
Taken in the same sequence, the figures for `CCCC[C@@H](C=O)NC(=O)[C@H](CC(C)C)NC(=O)CC(C)C` [Example 3, N-isovaleryl-L-leucyl-L-norleucinal] were 100 nM, 130 nM, 120 nM and 510 nM.
`CCCC[C@@H](C=O)NC(=O)[C@H](CC(C)C)NC(=O)OCc1ccc([N+](=O)[O-])cc1` [Example 8, N-(p-nitrobenzyloxycarbonyl)-L-leucyl-L-norleucinal]: the IC50 at calpain I (setting [1]) stood at 92 nM; on calpain II (setting [2]), 130 nM; at papain (setting [3]), 31 nM; on cathepsin B (setting [4]), 99 nM.
